Experimental data from patent US11014934B2, “Antiseptic drug” (AO “TATKHIMFARMPREPARATY”, priority 2017, dated 2021).
Read-outs that look alike come from different tables or passages of the source.

Experiments:
Format in all cases: cell-based
[1] = tested on: Staphylococcus aureus ATCC 209p; experiment: Disinfectant activity in contaminated metal surface test; conditions: for Inhibition rate (Mean ± SD) of Staphylococcus aureus ATCC 209p growth: 0.1% solution; for Inhibition rate (M ± SD) Staphylococcus aureus ATCC 209p: 0.2% solution; for time after application to effective inhibition of bacterial growth (99.99%): 0.1% solutions
Protocol: (§1) The preparation of the bacterial suspension was carried out similarly to the procedure for determining the disinfecting activity of compound I in suspension (see example 7). To simulate protein contamination of the metal surface, a BSA solution was added to the bacterial suspension to a final concentration of 0.4%. The surface of the metal table was drawn into squares, the number of which depended on the number of strains studied. The test surface should be clean, intact, sterile. To do this, the table was cleaned with alcohol, and then with sterile water. A microbial suspension in a volume of 0.125 ml was applied to a surface area of 5×5 cm and distributed with a sterile spatula over the entire square area. After the microbial suspension was dried, a 0.5 ml solution of compound I (miramistin and benzalkonium chloride being a control) was uniformly applied to the surface at a working concentration of 0.1 and 0.2% and distributed over the square surface with a sterile spatula, and then kept for 1, 5, and 15 minutes.
(§2) After the end of exposure, the contaminated surface was thoroughly wiped with a sterile gauze cloth (size 5×5 cm) soaked in 1 ml of a neutralizer solution and the cloth was immersed in 10 ml of sterile physiological saline in a flask, which was shaken for 10 minutes.
(§3) Plating was carried out as in example 7, in addition to the controls were carried out: • control of the sterility of the surface (before applying the microbial suspension, a metal table was washed off with a sterile swab, followed by plating on a nutrient medium); • control of the vitality of the microorganism (after applying microbial suspension on the metal table, it was washed off with a sterile swab with subsequent plating on the nutrient medium).
(§4) The contamination density of 1 cm^2 of the surface and the percentage of disinfection were calculated, taking the number of colonies removed from control surfaces as 100%. The criterion for the effectiveness of surface disinfection is not less than 99.99% of the death of test microorganisms, the disinfection time is not more than 120 minutes.

[2] = tested on: Escherichia coli CDC F-50; experiment: as above; conditions: for time after application to effective inhibition of bacterial growth: Escherichia coli CDC F-50, 0.1% solutions
Protocol: as §1, §2, §3, §4

Stylonychia mytilus = experiment: Antiprotozoal activity by death of protozoa; conditions: for IC50: read-out: IC50 (95% confidence interval)
Protocol: Evaluation of the antiprotozoal activity of compound I was determined by the viability of the protozoa genus of hypotrichs Stylonychia mytilus in a nutrient medium in the presence of the studied substances. A mother liquor of compound I (10 mg/ml) was prepared in a mixture of DMSO and 96% ethanol (1:1). A 1% aqueous solution of DMSO and ethyl alcohol served as a negative control, and miramistin, benzalkonium chloride, and chlorhexidine were used as reference preparations. Then, from the mother liquors by repeated dilutions with water, working solutions were prepared corresponding to doses of 5; 10; 20; 25; 50; 75; 100 and 150 μg/ml. 10 μl of culture medium with protozoa and 10 μl of a solution of the test substance were applied to a chamber slide. The experiment was done in five replicates.
Slides were examined under a light microscope, antiprotozoal activity of substances (MIC and IC50) were determined by the death of protozoa. The Hill regression model with 5 parameters was used for the analysis.

[3] = Staphylococcus aureus ATCC 209p
[4] = 0.1% solution, exposure 1 min, +BSA
[5] = 0.1% solution, exposure 1 min, −BSA
[6] = 0.1% solution, exposure 5 min, +BSA
[7] = 0.1% solution, exposure 5 min, −BSA
[8] = 0.1% solution, exposure 15 min, +BSA
[9] = 0.1% solution, exposure 15 min, −BSA
[10] = 0.2% solution, exposure 1 min, +BSA
[11] = 0.2% solution, exposure 1 min, −BSA
[12] = 0.2% solution, exposure 5 min, +BSA
[13] = 0.2% solution, exposure 5 min, −BSA
[14] = 0.2% solution, exposure 15 min, +BSA
[15] = 0.2% solution, exposure 15 min, −BSA
[16] = death of protozoa, Hill regression

Row | Compound | Inhibition rate (Mean ± SD) of Staphylococcus aureus ATCC 209p growth ([1]; exposure 1 min, +BSA) | Inhibition rate (Mean ± SD) of Staphylococcus aureus ATCC 209p growth ([1]; exposure 1 min, −BSA) | Inhibition rate (Mean ± SD) of Staphylococcus aureus ATCC 209p growth ([1]; exposure 5 min, +BSA) | Inhibition rate (Mean ± SD) of Staphylococcus aureus ATCC 209p growth ([1]; exposure 5 min, −BSA) | Inhibition rate (Mean ± SD) of Staphylococcus aureus ATCC 209p growth ([1]; exposure 15 min, +BSA) | Inhibition rate (Mean ± SD) of Staphylococcus aureus ATCC 209p growth ([1]; exposure 15 min, −BSA) | Inhibition rate (M ± SD) Staphylococcus aureus ATCC 209p ([1]; exposure 1 min, +BSA) | Inhibition rate (M ± SD) Staphylococcus aureus ATCC 209p ([1]; exposure 1 min, −BSA) | Inhibition rate (M ± SD) Staphylococcus aureus ATCC 209p ([1]; exposure 5 min, +BSA) | Inhibition rate (M ± SD) Staphylococcus aureus ATCC 209p ([1]; exposure 5 min, −BSA) | Inhibition rate (M ± SD) Staphylococcus aureus ATCC 209p ([1]; exposure 15 min, +BSA) | Inhibition rate (M ± SD) Staphylococcus aureus ATCC 209p ([1]; exposure 15 min, −BSA) | time after application to effective inhibition of bacterial growth (99.99%) [1, 3] | Inhibition rate (M ± SD) of Escherichia coli CDC F-50 growth [2, 4] | Inhibition rate (M ± SD) of Escherichia coli CDC F-50 growth [2, 5] | Inhibition rate (M ± SD) of Escherichia coli CDC F-50 growth [2, 6] | Inhibition rate (M ± SD) of Escherichia coli CDC F-50 growth [2, 7] | Inhibition rate (M ± SD) of Escherichia coli CDC F-50 growth [2, 8] | Inhibition rate (M ± SD) of Escherichia coli CDC F-50 growth [2, 9] | Inhibition rate (M ± SD) of Escherichia coli CDC F-50 growth [2, 10] | also measured
1 | alkyldimethyl(phenylmethyl) ammonium chloride [Benzalconium chloride] | 99.99 ± 0.005% | 99.99% | 99.99% | 99.99% | 99.99% | 99.99 ± 0.005% | 99.99% | 99.99% | 99.99% | 99.99% | 99.99 ± 0.005% | 100% | 5 min | 99.97 ± 0.005% | 99.96 ± 0.005% | 99.97 ± 0.005% | 99.98 ± 0.005% | 99.99 ± 0.005% | 100 ± 0.00% | 99.97 ± 0.00% | Inhibition rate (M ± SD) of Escherichia coli CDC F-50 growth [2, 11]: 99.99 ± 0.005%; Inhibition rate (M ± SD) of Escherichia coli CDC F-50 growth [2, 12]: 99.99 ± 0.005%; Inhibition rate (M ± SD) of Escherichia coli CDC F-50 growth [2, 13]: 100%; Inhibition rate (M ± SD) of Escherichia coli CDC F-50 growth [2, 14]: 100 ± 0.00%; Inhibition rate (M ± SD) of Escherichia coli CDC F-50 growth [2, 15]: 100%; time after application to effective inhibition of bacterial growth [2]: 15 min; time to effective inhibition of bacterial growth ([2]; Escherichia coli CDC F-50, concentration 0.2%, test without protein load): 1 min; MIC (Stylonychia mytilus; death of protozoa): 30 µg/mL; IC50 (95% confidence interval) (Stylonychia mytilus; [16]): 67 (66-69) μg/ml
2 | CCCCCCCCCCCC[N+](C)(C)Cc1cnc(C[N+](C)(C)CCCCCCCCCCCC)c2c1COC(CC)O2 (centres unmarked) [Compound I, 5,8-(Bis(methylene (N, N-dimethyl-N-dodecylammonium))-2-ethyl-4H-[1,3]dioxino [4,5-c]pyridiniumdichloride] | 99.98 ± 0.00% | 99.99% | 99.99% | 99.99% | 99.99% | 99.99% | 99.99% | 99.99% | 99.99% | 99.99% | 99.99% | 99.99% | 5 min | 99.92 ± 0.005% | 99.92 ± 0.005% | 99.96 ± 0.005% | 99.97 ± 0.005% | 99.99 ± 0.005% | 99.99 ± 0.00% | 99.94 ± 0.00% | time to effective inhibition of bacterial growth ([1]; Staphylococcus aureus ATCC 209p, concentration 0.2%): 1 min; Inhibition rate (M ± SD) of Escherichia coli CDC F-50 growth [2, 11]: 99.98 ± 0.005%; Inhibition rate (M ± SD) of Escherichia coli CDC F-50 growth [2, 12]: 99.99 ± 0.005%; Inhibition rate (M ± SD) of Escherichia coli CDC F-50 growth [2, 13]: 99.99 ± 0.005%; Inhibition rate (M ± SD) of Escherichia coli CDC F-50 growth [2, 14]: 100 ± 0.005%; Inhibition rate (M ± SD) of Escherichia coli CDC F-50 growth [2, 15]: 100%; time after application to effective inhibition of bacterial growth [2]: 15 min; IC50 (Stylonychia mytilus; [16]): 59 µg/mL; MIC (Stylonychia mytilus; death of protozoa, read-out: MIC): 25 µg/mL
3 | CCCCCCCCCCCCCC(=O)NCCC[N+](C)(C)Cc1ccccc1.O.[Cl-] [Miramistin, benzyldimethyl [3-(myristoylamino)propyl]-ammonium chloride monohydrate] | 99.98 ± 0.00% | 99.98 ± 0.005% | 99.99% | 99.99% | 99.99% | 99.99% | 99.98 ± 0.00% | 99.98 ± 0.005% | 99.99% | 99.99% | 99.99% | 99.99% | 5 min | 99.75 ± 0.005% | 99.75 ± 0.00% | 99.97 ± 0.005% | 99.86 ± 0.005% | 99.99 ± 0.005% | 99.99 ± 0.005% | 99.83 ± 0.005% | Inhibition rate (M ± SD) of Escherichia coli CDC F-50 growth [2, 11]: 99.98 ± 0.005%; Inhibition rate (M ± SD) of Escherichia coli CDC F-50 growth [2, 12]: 99.99 ± 0.005%; Inhibition rate (M ± SD) of Escherichia coli CDC F-50 growth [2, 13]: 99.99 ± 0.005%; Inhibition rate (M ± SD) of Escherichia coli CDC F-50 growth [2, 14]: 99.99 ± 0.005%; Inhibition rate (M ± SD) of Escherichia coli CDC F-50 growth [2, 15]: 100%; time after application to effective inhibition of bacterial growth [2]: 15 min; MIC (Stylonychia mytilus): 50 µg/mL; IC50 (Stylonychia mytilus): 92 µg/mL
